Values quoted from earlier work in patent US20210401766A1, “Method of Using Cannabinoids Encapsulated in Phospholipid Carriers for Transmucosal and Transdermal Administration” (NuVessl, Inc., priority 2018, published 2021).

Question: What does the source list for `C=C(C)[C@@H]1CCC(C)=C[C@H]1c1c(O)cc(CCCCC)cc1O` [CBD, Cannabidiol]?
Answer: Duration of effects (oral administration): 5 to 8 h; Bioavailability (oromucosal): approximately 35%; Bioavailability (average) (smoking and vaporizing): around 40%; Bioavailability (range) (smoking and vaporizing): 2%-56%; Length of time CBD remains in the body (smoking and vaporizing): around 3 hours
